Data as given in patent publication US20250275540A1, “USE OF PROTOPORPHYRINOGEN OXIDASE” (BEIJING DABEINONG BIOTECHNOLOGY CO., LTD., priority 2022, published 2025).

Test system: transgenic Arabidopsis thaliana T1 plants
Test: Detection of the herbicide tolerance of the transgenic Arabidopsis thaliana plants
Assay type: in vivo
Conditions: for The grade of pesticide damage/plant: 0 / The grade of pesticide damage/plant: 1 / The grade of pesticide damage/plant: 2 / The grade of pesticide damage/plant: 3: 7 DAT
From the text: The transformed Arabidopsis thaliana T1 plants were initially selected using glufosinate herbicide. The Arabidopsis thaliana T1 plants (PPOA-01) into which the PPOA-01 nucleotide sequence was introduced, the Arabidopsis thaliana T1 plants (PPOB-01) into which the PPOB-01 nucleotide sequence was introduced, the Arabidopsis thaliana T1 plants (PPOC-01) into which the PPOC-01 nucleotide sequence was introduced, the Arabidopsis thaliana T1 plants (PPOD-01) into which the PPOD-01 nucleotide sequence was introduced, the Arabidopsis thaliana T1 plants (PPOE-01) into which the PPOE-01 nucleotide sequence was introduced, the Arabidopsis thaliana T1 plants (PPOF-01) into which the PPOF-01 nucleotide sequence was introduced, the Arabidopsis thaliana T1 plants (PPO-AP-01) into which the PPO-AP-01 nucleotide sequence was introduced, and the Arabidopsis thaliana T1 plants (control vector) into which the control vector was introduced, the wild-type Arabidopsis thaliana plants (CK) (with 24 plants being included in each genotype) (18 days after sowing) were sprayed with saflufenacil at three concentrations (25 g ai/ha (one-fold field concentration, 1×), 100 g ai/ha (four-fold field concentration, 4×), and 0 g ai/ha (water, 0×)), oxyfluorfen at three concentrations (180 g ai/ha (one-fold field concentration, 1×), 720 g ai/ha (four-fold field concentration, 4×), and 0 g ai/ha (water, 0×)), and flumioxazin at three concentrations (60 g ai/ha (one-fold field concentration, 1×), 240 g ai/ha (four-fold field concentration, 4×), and 0 g ai/ha (water, 0×) to determine the tolerance of Arabidopsis thaliana to the herbicides. After 7 days of spraying (7 DAT), the damage level of each plant caused by the herbicide was evaluated according to the average of the damage levels (%) of plants (the average of the damage levels (%) of plants=the injured leaf area/the total leaf area×100%), i.e., the grade of pesticide damage: grade 0 means that the growth status of plants is essentially consistent with those sprayed with the blank solvent (water); grade 1 means that the average of the damage levels of plants is less than 10%; grade 2 means that the average of the damage levels of plants is greater than 10%; and grade 3 means that the average of the damage levels of plants is 100%. The plants having a growth status falling within grades 0 and 1 are classified as highly resistant plants; those having a growth status falling within grade 2 are classified as poorly resistant plants; and those having a growth status falling within grade 3 are classified as non-resistant plants.

[1] = genotype Control vector, 180 g ai/ha
[2] = genotype Control vector, 720 g ai/ha
[3] = genotype PPO-AP-01, 180 g ai/ha
[4] = genotype PPO-AP-01, 720 g ai/ha

SMILES: CCOc1cc(Oc2ccc(C(F)(F)F)cc2Cl)ccc1[N+](=O)[O-] [oxyfluorfen, 2-chloro-1-(3-ethoxy-4-nitrophenoxy)-4-trifluoromethylbenzene]
- effective dose distinguishing sensitive plants from plants having an average level of resistance (Arabidopsis thaliana): 180 g ai/ha
- The grade of pesticide damage/plant: 0 (genotype CK, 180 g ai/ha): 0 plant
- The grade of pesticide damage/plant: 1 (genotype CK, 180 g ai/ha): 0 plant
- The grade of pesticide damage/plant: 2 (genotype CK, 180 g ai/ha): 0 plant
- The grade of pesticide damage/plant: 3 (genotype CK, 180 g ai/ha): 24 plant
- The grade of pesticide damage/plant: 0 (genotype CK, 720 g ai/ha): 0 plant
- The grade of pesticide damage/plant: 1 (genotype CK, 720 g ai/ha): 0 plant
- The grade of pesticide damage/plant: 2 (genotype CK, 720 g ai/ha): 0 plant
- The grade of pesticide damage/plant: 3 (genotype CK, 720 g ai/ha): 24 plant
- The grade of pesticide damage/plant: 0 [1]: 0 plant
- The grade of pesticide damage/plant: 1 [1]: 0 plant
- The grade of pesticide damage/plant: 2 [1]: 0 plant
- The grade of pesticide damage/plant: 3 [1]: 24 plant
- The grade of pesticide damage/plant: 0 [2]: 0 plant
- The grade of pesticide damage/plant: 1 [2]: 0 plant
- The grade of pesticide damage/plant: 2 [2]: 0 plant
- The grade of pesticide damage/plant: 3 [2]: 24 plant
- The grade of pesticide damage/plant: 0 [3]: 0 plant
- The grade of pesticide damage/plant: 1 [3]: 0 plant
- The grade of pesticide damage/plant: 2 [3]: 0 plant
- The grade of pesticide damage/plant: 3 [3]: 24 plant
- The grade of pesticide damage/plant: 0 [4]: 0 plant
- The grade of pesticide damage/plant: 1 [4]: 0 plant
- The grade of pesticide damage/plant: 2 [4]: 0 plant
- The grade of pesticide damage/plant: 3 [4]: 24 plant
- tolerance to the herbicide (in words) (genotype PPO-AP-01, at different concentrations): no tolerance
- The grade of pesticide damage/plant: 0 (genotype PPOA-01, 180 g ai/ha): 24 plant
- The grade of pesticide damage/plant: 1 (genotype PPOA-01, 180 g ai/ha): 0 plant
- The grade of pesticide damage/plant: 2 (genotype PPOA-01, 180 g ai/ha): 0 plant
- The grade of pesticide damage/plant: 3 (genotype PPOA-01, 180 g ai/ha): 0 plant
- The grade of pesticide damage/plant: 0 (genotype PPOA-01, 720 g ai/ha): 24 plant
- The grade of pesticide damage/plant: 1 (genotype PPOA-01, 720 g ai/ha): 0 plant
- The grade of pesticide damage/plant: 2 (genotype PPOA-01, 720 g ai/ha): 0 plant
- The grade of pesticide damage/plant: 3 (genotype PPOA-01, 720 g ai/ha): 0 plant
- The grade of pesticide damage/plant: 0 (genotype PPOB-01, 180 g ai/ha): 24 plant
- The grade of pesticide damage/plant: 1 (genotype PPOB-01, 180 g ai/ha): 0 plant
- The grade of pesticide damage/plant: 2 (genotype PPOB-01, 180 g ai/ha): 0 plant
- The grade of pesticide damage/plant: 3 (genotype PPOB-01, 180 g ai/ha): 0 plant
- The grade of pesticide damage/plant: 0 (genotype PPOB-01, 720 g ai/ha): 24 plant
- The grade of pesticide damage/plant: 1 (genotype PPOB-01, 720 g ai/ha): 0 plant
- The grade of pesticide damage/plant: 2 (genotype PPOB-01, 720 g ai/ha): 0 plant
- The grade of pesticide damage/plant: 3 (genotype PPOB-01, 720 g ai/ha): 0 plant
- The grade of pesticide damage/plant: 0 (genotype PPOC-01, 180 g ai/ha): 24 plant
- The grade of pesticide damage/plant: 1 (genotype PPOC-01, 180 g ai/ha): 0 plant
- The grade of pesticide damage/plant: 2 (genotype PPOC-01, 180 g ai/ha): 0 plant
- The grade of pesticide damage/plant: 3 (genotype PPOC-01, 180 g ai/ha): 0 plant
- The grade of pesticide damage/plant: 0 (genotype PPOC-01, 720 g ai/ha): 24 plant
- The grade of pesticide damage/plant: 1 (genotype PPOC-01, 720 g ai/ha): 0 plant
- The grade of pesticide damage/plant: 2 (genotype PPOC-01, 720 g ai/ha): 0 plant
- The grade of pesticide damage/plant: 3 (genotype PPOC-01, 720 g ai/ha): 0 plant
- The grade of pesticide damage/plant: 0 (genotype PPOD-01, 180 g ai/ha): 24 plant
- The grade of pesticide damage/plant: 1 (genotype PPOD-01, 180 g ai/ha): 0 plant
- The grade of pesticide damage/plant: 2 (genotype PPOD-01, 180 g ai/ha): 0 plant
- The grade of pesticide damage/plant: 3 (genotype PPOD-01, 180 g ai/ha): 0 plant
- The grade of pesticide damage/plant: 0 (genotype PPOD-01, 720 g ai/ha): 24 plant
- The grade of pesticide damage/plant: 1 (genotype PPOD-01, 720 g ai/ha): 0 plant
- The grade of pesticide damage/plant: 2 (genotype PPOD-01, 720 g ai/ha): 0 plant
- The grade of pesticide damage/plant: 3 (genotype PPOD-01, 720 g ai/ha): 0 plant
- The grade of pesticide damage/plant: 0 (genotype PPOE-01, 180 g ai/ha): 22 plant
- The grade of pesticide damage/plant: 1 (genotype PPOE-01, 180 g ai/ha): 2 plant
- The grade of pesticide damage/plant: 2 (genotype PPOE-01, 180 g ai/ha): 0 plant
- The grade of pesticide damage/plant: 3 (genotype PPOE-01, 180 g ai/ha): 0 plant
- The grade of pesticide damage/plant: 0 (genotype PPOE-01, 720 g ai/ha): 15 plant
- The grade of pesticide damage/plant: 1 (genotype PPOE-01, 720 g ai/ha): 9 plant
- The grade of pesticide damage/plant: 2 (genotype PPOE-01, 720 g ai/ha): 0 plant
- The grade of pesticide damage/plant: 3 (genotype PPOE-01, 720 g ai/ha): 0 plant
- The grade of pesticide damage/plant: 0 (genotype PPOF-01, 180 g ai/ha): 24 plant
- The grade of pesticide damage/plant: 1 (genotype PPOF-01, 180 g ai/ha): 0 plant
- The grade of pesticide damage/plant: 2 (genotype PPOF-01, 180 g ai/ha): 0 plant
- The grade of pesticide damage/plant: 3 (genotype PPOF-01, 180 g ai/ha): 0 plant
- The grade of pesticide damage/plant: 0 (genotype PPOF-01, 720 g ai/ha): 24 plant
- The grade of pesticide damage/plant: 1 (genotype PPOF-01, 720 g ai/ha): 0 plant
- The grade of pesticide damage/plant: 2 (genotype PPOF-01, 720 g ai/ha): 0 plant
- The grade of pesticide damage/plant: 3 (genotype PPOF-01, 720 g ai/ha): 0 plant
- tolerance to the herbicide (in words) (genotypes PPOA-01 to PPOF-01, at different concentrations, compared with the control vector and CK): high-resistant tolerance
